Test results published in US8546608B2, “Proteasome inhibitors and methods of using the same” (Cephalon, Inc., priority 2003, dated 2013).
Where a name gives a salt, the structure may show the parent alone. Read-outs that look alike come from different tables or passages of the source.

Legend:
[1] = target: T1, proteasome in Molt-4 cells (human leukemia) (Homo sapiens, UniProt P20618+P28074); type: cell-based
T1 sequence (P28074 60-263): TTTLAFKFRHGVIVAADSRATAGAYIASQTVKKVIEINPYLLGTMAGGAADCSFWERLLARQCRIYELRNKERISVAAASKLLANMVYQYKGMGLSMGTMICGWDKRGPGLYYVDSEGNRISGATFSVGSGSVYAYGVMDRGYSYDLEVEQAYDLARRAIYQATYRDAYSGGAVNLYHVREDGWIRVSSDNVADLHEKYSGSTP
T1 sequence (P20618 29-241): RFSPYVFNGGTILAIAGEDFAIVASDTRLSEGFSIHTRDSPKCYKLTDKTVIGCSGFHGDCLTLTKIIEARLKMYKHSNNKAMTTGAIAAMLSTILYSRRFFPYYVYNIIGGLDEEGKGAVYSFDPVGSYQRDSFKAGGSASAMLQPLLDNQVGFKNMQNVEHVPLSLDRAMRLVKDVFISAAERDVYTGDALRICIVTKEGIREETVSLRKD
Summary of the method: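 Intact Molt-4 cells (6×10^6 cells/mL) in HEPES-buffered saline were preincubated with inhibitor 15 min at 37 °C, then given cell-permeable MeOSuc-FLF-AFC at 25 μM final.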

[2] = target: T2, 20S Human Erythrocyte Proteasome (HEP) (Homo sapiens, UniProt P20618+P28074); assay: Chymotrypsin-like activity of 20S Human Erythrocyte Proteasome (HEP), IC50 determination; type: biochemical; conditions: assay of Example C, inhibition of HEP
T2 construct: 20S Human Erythrocyte Proteasome (HEP), purchased from Immatics Biotechnologies Inc; purchased Immatics Biotechnologies Inc., Tübingen, Germany; host or cells: human erythrocytes (natural source)
Summary of the method: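 20S proteasome at 0.2 μg/mL (about 0.6 nM catalytic sites) in 20 mM Tris with 0.04% SDS, preincubated 15 min at 37° C with inhibitor before Suc-LLVY-AMC (100 μM final). AMC fluorescence read in the linear range; triplicates, IC50 from concentration series.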

[3] = read-out: MOLT4 (EC50); assay of Example E, inhibition of MOLT4
[4] = assay of Example E, inhibition of MOLT4; read-out: MOLT4 (EC50)

Row | Compound | EC50 [1, 3] [nM] | IC50 [2] [nM] | EC50 [1, 4] [nM]
1 | CC(C)C[C@H](NC(=O)[C@H](CCCNC(=N)N[N+](=O)[O-])NC(=O)Cc1ccccc1Cl)B(O)O [E.1.13, Boronic acid, [(1R)-1-[[(2S)-5-[[imino(nitroamino)methyl]amino]-2-[2-(2-chlorophenyl)acetyl]amino]-3-methylbutyl] HCl salt] | 2000 to 10000 | < 10 | –
2 | CCCCCCCCS(=O)(=O)N[C@@H](CCCNC(=N)N[N+](=O)[O-])C(=O)N[C@@H](CC(C)C)B(O)O [E.1.15, Boronic acid, [(1R)-1-[[(2S)-5-[[imino(nitroamino)methyl]amino]-2-[(1-octanesulfonyl)amino]-1-oxopentyl]amino]-3-methylbutyl], HCl salt] | 200 to 2000 | < 10 | –
3 | CCCCCCCCCC(=O)N[C@@H](CNC(=O)c1ccc(C)cc1)C(=O)N[C@@H](CC(C)C)B(O)O [E.1.16, Boronic acid, [(1R)-1-[[(2S)-3-[(4-methylbenzoyl)amino]-2-[(decanoylamino)]-1-oxopropyl]amino]-3-methylbutyl]] | – | < 10 | < 200
4 | CCCCCCCCCC(=O)N[C@H](C(=O)N[C@@H](CC(C)C)B(O)O)[C@@H](C)O [E.1.17, Boronic acid, [(1R)-1-[[(2S,3R)-3-hydroxy-2-[(decanoyl)amino]-1-oxobutyl]amino]-3-methylbutyl]] | – | < 10 | < 200
5 | CC(C)C[C@H](NC(=O)[C@@H](NC(=O)CCCCCCCCCN1C(=O)c2ccccc2C1=O)[C@@H](C)O)B(O)O [E.1.18, Boronic acid, [(1R)-1-[[(2S,3R)-3-hydroxy-2-[[10-(1,3-dioxo-1,3-dihydro-isoindol-2-yl)-decanoyl]amino]-1-oxobutyl]amino]-3-methylbutyl]] | – | < 10 | < 200
6 | CC(C)C[C@H](NC(=O)[C@H](CCCNC(=N)N[N+](=O)[O-])NC(=O)CCCCCCCCCN1C(=O)c2ccccc2C1=O)B(O)O [E.1.20] | – | < 10 | < 200
7 | CC(C)C[C@H](NC(=O)[C@H](CCCN/C(N)=N/[N+](=O)[O-])NC(=O)C(CCCCCCCCN1C(=O)c2ccccc2C1=O)C1CCCC1)B(O)O (stereo partly shown) [E.1.21] | – | < 10 | < 200
8 | COC(=O)CCCCCCC(=O)N[C@@H](CCCNC(=N)N[N+](=O)[O-])C(=O)N[C@@H](CC(C)C)B(O)O [E.1.22, Boronic acid, [(1R)-1-[[(2S)-5-[[imino(nitroamino)methyl]amino]-2-[[7-(methoxycarbonyl)heptanoyl]amino]-1-oxopentyl]amino]-3-methylbutyl]] | – | < 10 | > 10000
9 | CC(C)C[C@H](NC(=O)[C@@H](NC(=O)CCCc1ccccc1)[C@@H](C)O)B(O)O [E.1.23, Boronic acid, [(1R)-1-[[(2S,3R)-3-hydroxy-2-[(4-phenylbutanoyl)amino]-1-oxobutyl]amino]-3-methylbutyl]] | – | < 10 | < 200
10 | CCCCCCCCCCCNC(=O)N[C@H](C(=O)N[C@@H](CC(C)C)B(O)O)[C@@H](C)O [E.1.24, Boronic acid, [(1R)-1-[[(2S,3R)-3-hydroxy-2-[(undecylaminocarbonyl)amino]-1-oxobutyl]amino]-3-methylbutyl]] | – | < 10 | < 200
11 | CC(C)C[C@H](NC(=O)[C@@H](NC(=O)c1ccc2ccccc2c1Br)[C@@H](C)O)B(O)O [E.1.25, Boronic acid, [(1R)-1-[[(2S,3R)-3-hydroxy-2-[(1-Bromo-2-naphthoyl)amino]-1-oxobutyl]amino]-3-methylbutyl]] | – | < 10 | < 200
12 | CC(C)C[C@H](NC(=O)[C@@H](NC(=O)c1ccc2cc(Br)ccc2c1)[C@@H](C)O)B(O)O [E.1.26, Boronic acid, [(1R)-1-[[(2S,3R)-3-hydroxy-2-[(6-Bromo-2-naphthoyl)amino]-1-oxobutyl]amino]-3-methylbutyl]] | – | < 10 | < 200
13 | CCCCCCCCCC(=O)N[C@@H](CC(N)=O)C(=O)N[C@@H](CC(C)C)B(O)O [E.1.27, Boronic acid, [(1R)-1-[[(2S)-3-carbamoyl-2-[(decanoyl)amino]-1-oxopropyl]amino]-3-methylbutyl]] | – | < 10 | < 200
14 | CCCCc1ccc(C(=O)N[C@@H](CC(N)=O)C(=O)N[C@@H](CC(C)C)B(O)O)cc1 [E.1.28, Boronic acid, [(1R)-1-[[(2S)-3-carbamoyl-2-[4-butyl(benzoyl)amino]-1-oxopropyl]amino]-3-methylbutyl]] | – | < 10 | 200 to 2000
15 | CCCCCCCCCC(=O)N[C@@H](CCCNC(N)=O)C(=O)N[C@@H](CC(C)C)B(O)O [E.1.29, Boronic acid, [(1R)-1-[[(2S)-2-[(decanoyl)amino]-1-oxo-5-ureido-pentyl]amino]-3-methylbutyl]] | – | < 10 | 200 to 2000
16 | CCCCc1ccc(C(=O)N[C@@H](CCCNC(N)=O)C(=O)N[C@@H](CC(C)C)B(O)O)cc1 [E.1.30, Boronic acid, [(1R)-1-[[(2S)-2-[(4-butylbenzoyl)amino]-1-oxo-5-ureido-pentyl]amino]-3-methylbutyl]] | – | < 10 | 2000 to 10000
17 | CCCCCCCCCC(=O)N[C@@H](CCCNC(=N)N[N+](=O)[O-])C(=O)N[C@@H](CC(C)C)B(O)O [E.2.1, Boronic acid, [(1R)-1-[[(2S)-5-[[imino(nitroamino)methyl]amino]-2-[(1-oxodecyl)amino]-1-oxopentyl]amino]-3-methylbutyl]] | – | < 10 | < 200
18 | CCCCCCCC(=O)N[C@@H](CCCNC(=N)N[N+](=O)[O-])C(=O)N[C@@H](CC(C)C)B(O)O [E.2.2, Boronic acid, [(1R)-1-[[(2S)-5-[[imino(nitroamino)methyl]amino]-2-[(octanoyl)amino]-1-oxopentyl]amino]-3-methylbutyl]] | – | < 10 | 200 to 2000
19 | CC(C)C[C@H](NC(=O)[C@H](CCCNC(=N)N[N+](=O)[O-])NC(=O)C1(c2ccccc2)CCCC1)B(O)O [E.2.3, Boronic acid, [(1R)-1-[[(2S)-5-[[imino(nitroamino)methyl]amino]-2-[(1-phenylcyclopentanecarbnyl)amino]-1-oxopentyl]amino]-3-methylbutyl]] | – | < 10 | 2000 to 10000
20 | CC[C@@H](C(=O)N[C@@H](CCCNC(=N)N[N+](=O)[O-])C(=O)N[C@@H](CC(C)C)B(O)O)c1ccccc1 [E.2.4, Boronic acid, [(1R)-1-[[(2S)-5-[[imino(nitroamino)methyl]amino]-2-[((2R)-2-phenylbutanoyl)amino]-1-oxopentyl]amino]-3-methylbutyl]] | – | < 10 | > 10000
21 | CC(C)C[C@H](NC(=O)[C@H](CCCNC(=N)N[N+](=O)[O-])NC(=O)C1CCC(C(C)(C)C)CC1)B(O)O (stereo partly drawn) [E.2.5, Boronic acid, [(1R)-1-[[(2S)-5-[[imino(nitroamino)methyl]amino]-2-[[4-(1,1-Dimethylethyl)cyclohexanecarbonyl]amino]-1-oxopentyl]amino]-3-methylbutyl]] | – | < 10 | 2000 to 10000
22 | CCCCC[C@H]1CC[C@H](C(=O)N[C@@H](CCCNC(=N)N[N+](=O)[O-])C(=O)N[C@@H](CC(C)C)B(O)O)CC1 [E.2.6, Boronic acid, [(1R)-1-[[(2S)-5-[[imino(nitroamino)methyl]amino]-2-[(trans-4-pentylcyclohexanecarbonyl)amino]-1-oxopentyl]amino]-3-methylbutyl]] | – | < 10 | 200 to 2000
23 | CC(C)C[C@H](NC(=O)[C@H](CCCNC(=N)N[N+](=O)[O-])NC(=O)CCCc1ccccc1)B(O)O [E.2.7, Boronic acid, [(1R)-1-[[(2S)-5-[[imino(nitroamino)methyl]amino]-2-[(4-phenylbutanoyl)amino]-1-oxopentyl]amino]-3-methylbutyl]] | – | < 10 | 2000 to 10000
24 | CC(C)C[C@H](NC(=O)[C@H](CCCNC(=N)N[N+](=O)[O-])NC(=O)c1ccc(C(C)(C)C)cc1)B(O)O [E.2.8, Boronic acid, [(1R)-1-[[(2S)-5-[[imino(nitroamino)methyl]amino]-2-[(4-(1,1-dimethylethyl)benzoyl)amino]-1-oxopentyl]amino]-3-methylbutyl]] | – | < 10 | 2000 to 10000
25 | CCCCCCCCC(=O)N[C@@H](CCCNC(=N)N[N+](=O)[O-])C(=O)N[C@@H](CC(C)C)B(O)O [E.2.9, Boronic acid, [(1R)-1-[[(2S)-5-[[imino(nitroamino)methyl]amino]-2-[(nonanoyl)amino]-1-oxopentyl]amino]-3-methylbutyl]] | – | < 10 | 200 to 2000
26 | CC(C)C[C@H](NC(=O)[C@H](CCCNC(=N)N[N+](=O)[O-])NC(=O)c1cccs1)B(O)O [E.2.10, Boronic acid, [(1R)-1-[[(2S)-5-[[imino(nitroamino)methyl]amino]-2-[(2-thiophenecarbonyl)amino]-1-oxopentyl]amino]-3-methylbutyl]] | – | < 10 | > 10000
